Columns and labels:
KRas [1] = target: T1, KRas (Homo sapiens, UniProt P01116, G12C); assay: KRas degradation in SW1573 cells by Western blot, normalized to GAPDH (data of Table 14); format: cell-based
How it was run: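 SW1573 cells, homozygous for the KRas G12C mutation and maintained in DMEM with 10% FBS and 1% penicillin-streptomycin, were seeded in 12-well plates, allowed to attach overnight at 37° C. under 5% CO2, then serum-starved for 24 hours before compound exposure. KRas levels were measured by Western blot, normalized to GAPDH, and compared with DMSO controls to give percent degradation, DC50 and Dmax.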

KRas [2] = target: T1, KRas; assay: KRas degradation in NCI-H2030 cells by Western blot, normalized to GAPDH (data of Table 14); format: cell-based; parameters: host or cells: NCI-H2030; conditions: for Dmax: NCI-H2030
How it was run: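 KRas/GAPDH band ratio vs DMSO lane gives % degradation; values under 25% were estimated visually, the rest quantitated. Cells are G12C homozygous, serum-free for 24 h, then dosed at 0.3/1/3 μM (0.1% DMSO). VHL-based compounds 24 h, others 72 h.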

## C=CC(=O)N1CCN(c2nc(NCCC(=O)N(C)CCOCCOCCOCCOCC(=O)N[C@H](C(=O)N3C[C@H](O)C[C@H]3C(=O)N[C@@H](C)c3ccc(-c4scnc4C)cc3)C(C)(C)C)nc3c(F)c(-c4cc(O)cc5ccccc45)c(Cl)cc23)CC1 (racemic) [compound 196, (2RS,4SR)-1-((RS)-21-((4-(4-acryloylpiperazin-1-yl)-6-chloro-8-fluoro-7-((SR)-3-hydroxynaphthalen-1-yl)quinazolin-2-yl)amino)-2-(tert-butyl)-18-methyl-4,19-dioxo-6,9,12,15-tetraoxa-3,18-diazahenicosanoyl)-4-hydroxy-N-((RS)-1-(4-(4-methylthiazol-5-yl)phenyl)ethyl)pyrrolidine-2-carboxamide]
KRas [1]; SW1573
  DC50: ≥ 1000 nM
  Dmax: ≤ 35%
KRas [1]; SW1573, 0.03 μM
  Percent Degradation at Indicated Concentration (μM): C (Percent Degradation: C ≤ 35)
KRas [1]; SW1573, 0.1 μM
  Percent Degradation at Indicated Concentration (μM): C (Percent Degradation: C ≤ 35)
KRas [1]; SW1573, 0.3 μM
  Percent Degradation at Indicated Concentration (μM): C (Percent Degradation: C ≤ 35)
KRas [1]; SW1573, 1 μM
  Percent Degradation at Indicated Concentration (μM): C (Percent Degradation: C ≤ 35)
KRas [1]; SW1573, 3 μM
  Percent Degradation at Indicated Concentration (μM): C (Percent Degradation: C ≤ 35)
KRas [2]; H2030
  DC50: ≥ 1000 nM
KRas [2]; H2030, 0.03 μM
  Percent Degradation at Indicated Concentration (μM): C (Percent Degradation: C ≤ 35)
KRas [2]; H2030, 0.1 μM
  Percent Degradation at Indicated Concentration (μM): C (Percent Degradation: C ≤ 35)
KRas [2]; H2030, 0.3 μM
  Percent Degradation at Indicated Concentration (μM): C (Percent Degradation: C ≤ 35)
KRas [2]; H2030, 1 μM
  Percent Degradation at Indicated Concentration (μM): C (Percent Degradation: C ≤ 35)
KRas [2]; H2030, 3 μM
  Percent Degradation at Indicated Concentration (μM): C (Percent Degradation: C ≤ 35)
KRas [2]
  Dmax: ≤ 35%

## C=CC(=O)N1CCN(c2nc(O[C@H](C)CN3CCC(OCCOCC(=O)N[C@H](C(=O)N4C[C@H](O)C[C@H]4C(=O)N[C@@H](C)c4ccc(-c5scnc5C)cc4)C(C)(C)C)CC3)nc3c(F)c(-c4cc(O)cc5ccccc45)c(Cl)cc23)CC1 [compound 398, (2S,4R)-1-((2S)-2-(2-(2-((1-((2R)-2-((4-(4-acryloylpiperazin-1-yl)-6-chloro-8-fluoro-7-(3-hydroxynaphthalen-1-yl)quinazolin-2-yl)oxy)propyl)piperidin-4-yl)oxy)ethoxy)acetamido)-3,3-dimethylbutanoyl)-4-hydroxy-N-((S)-1-(4-(4-methylthiazol-5-yl)phenyl)ethyl)pyrrolidine-2-carboxamide]
KRas [1]; SW1573 cells
  DC50: < 100 nM
  Dmax: 35 to 70%
KRas [1]; SW1573 cells, 0.01 μM
  Percent Degradation at Indicated Concentration (μM): C (Percent Degradation: C ≤ 35)
KRas [1]; SW1573 cells, 0.03 μM
  Percent Degradation at Indicated Concentration (μM): B (35 < B < 70)
KRas [1]; SW1573 cells, 0.1 μM
  Percent Degradation at Indicated Concentration (μM): B (35 < B < 70)
KRas [1]; SW1573 cells, 0.3 μM
  Percent Degradation at Indicated Concentration (μM): B (35 < B < 70)
KRas [1]; SW1573 cells, 1 μM
  Percent Degradation at Indicated Concentration (μM): C (Percent Degradation: C ≤ 35)
KRas [2]; H2030 cells, 0.3 μM
  Percent Degradation at Indicated Concentration (μM): C (Percent Degradation: C ≤ 35)
KRas [2]; H2030 cells, 1 μM
  Percent Degradation at Indicated Concentration (μM): C (Percent Degradation: C ≤ 35)
KRas [2]; H2030 cells, 3 μM
  Percent Degradation at Indicated Concentration (μM): C (Percent Degradation: C ≤ 35)
KRas [2]; H2030 cells
  Dmax: ≤ 35%

Source: patent US12552783B2, “Modulators of proteolysis and associated methods of use” (Arvinas Operations, Inc., priority 2018, dated 2026)
